Structures are written as SMILES. Where two headings read alike, the source gives them in different places.

The text below walks through data of publication PMC8626775, “Anti-schistosomal activities of quinoxaline-containing compounds: From hit identification to lead optimisation” (European Journal of Medicinal Chemistry, 2021).

One series has as its system HepG2 cells. Put plainly: HepG2 MTT cytotoxicity assay. Conditions: for Toxicity on HepG2 in words: 24 h; for Selectivity Index (SI) Adult worms: HepG2 CC50 versus adult worm EC50; for Selectivity Index (SI) Somula: HepG2 CC50 versus schistosomula EC50. The method, then:
Initially the cells were handled under sterile conditions and grown at 37 °C in a humidified atmosphere containing 5% CO2. Cytotoxicity was evaluated by way of a 3-(4, 5- dimethylthiazol-2-yl)-2,5-diphenyl tetrazolium bromide (MTT) assay as previously described. The cells were counted in a dual chamber counting slide using the BIORAD TC-10 Automated cell counter, seeded in a 96-well plate (Fisher Scientific, Loughborough, UK) at a density of 2 × 10^4 cells/well and incubated in an atmosphere of 5% CO2 at 37 °C. […] The absorbance readings (at 570 nm) of the soluble formazan crystals were recorded using PolarStar Omega plate reader (BMG-Labtech). […] The latter was used to calculate the selectivity index (SI) of the compounds presented herein.

Another series deals with S. mansoni schistosomula. Put plainly: S. mansoni schistosomula high-throughput phenotype and motility screen (Roboworm), 72 h. Type of series: cell-based, Schistosoma mansoni. As to conditions: Schistosoma mansoni. The method, then:
Cercariae derived from the NMRI ([…]) Puerto Rican strain (PR-1) of S. mansoni were shed from two Biomphalaria glabrata strains, the NMRI albino and pigmented outbred strains, under intensified lighting conditions (1 h of incubation at 26 °C). Cercariae were then mechanically transformed into schistosomula as previously described.
High-throughput screening (HTS) of selected compounds was conducted as previously described. Briefly, newly transformed schistosomula were distributed in a 384-well tissue culture plate (PerkinElmer, cat 6007460, seeding density of 120 parasites/well). Each compound (at a single concentration or two-fold titrations) was transferred into individual wells alongside the positive and negative controls (AUR at 10 μM final concentration in 0.625% DMSO and 0.625% DMSO, respectively). Schistosomula/compound co-cultures were then incubated at 37 °C for 72 h in a humidified atmosphere containing 5% CO2. Following the co-culture period, automatic assessment of compound-induced schistosomula motility and phenotypic changes were conducted with the high-content imaging platform Roboworm using the image analysis model previously described by Paveley et al..

For series [1], the system named is adult S. japonicum male worms. Put plainly: In vitro screening of S. japonicum adults at 100 nM (WormAssay motility, descriptors, severity score). The class given is cell-based, Schistosoma japonicum. As for the experimental part: For each species, parasite recovery involved reverse perfusion of the hepatic portal and mesenteric system using DMEM (Fisher Scientific). Parasites were washed six times with Basch 169 medium supplemented with 100 U/ml penicillin and 100 μg/ml streptomycin before manually distributing approximately 5 males per well (on occasion 1 or 2 females might also be present) of a 24-well plate (Corning Costar 3524). […] The next morning, a final concentration of 100 nM compound (in 1 μL DMSO) was added to each well and the final volume made up to 2 ml with Basch 169 medium supplemented with antibiotics and FBS. Each compound was tested in triplicate (except for some instances tested in duplicate). […] The phenotypic characterisation of compound effects focused on male worms due to the greater range of their motility characteristics that include flexing, bending, stretching, sucker walking and adherence, compared to the more sedentary female worms. In addition to descriptors, WormAssay, as adapted for the schistosome, was used to measure average worm motility per well [72, 73].

The next series relates to S. mansoni adult worms. Put plainly: S. mansoni adult worm motility screen (WormassayGP2), 72 h. The class given is cell-based, Schistosoma mansoni. Conditions: Schistosoma mansoni. The source says: Mice (Mus musculus HsdOLa:TO - Tuck Ordinary; Envigo, UK) were used for the mammalian-specific propagation of the S. mansoni life cycle. Experimental animals were infected with 4000 or 180 S. mansoni cercariae/mouse and perfused three- or seven-weeks post-infection to obtain S. mansoni juvenile or adult worms, respectively. Preparation steps following perfusion have been described previously. Briefly, the parasite material was washed three times with pre-warmed adult worm media (DMEM (Gibco, Paisley, UK) supplemented with 10% (v/v) Fetal Calf Serum (FCS, Gibco, Paisley, UK), 1% (v/v) L-glutamine (Gibco, Paisley, UK) and an antibiotic mixture (150 Units/ml penicillin and 150 μg/ml streptomycin; Gibco, UK)) to remove residual host contamination and incubated in a humidified environment containing 5% CO2 at 37 °C for at least 1 h.
For the evaluation of anti-schistosomal activity on the adult stage of the parasite, 7-wk old worms were transferred into 48 well tissue culture plates (1–3 worm pairs/well, in duplicate). […] DMSO (0.5%) and praziquantel (10 μM in 0.5% DMSO) were also included as negative and positive control treatments. Treated adult worms were incubated for 72 h in a humidified environment containing 5% CO2 at 37 °C. Parasite motility after compound treatment was assessed by a digital image processing-based system (WormassayGP2), modified after Wormassay. Following compound-parasite co-incubation, eggs were collected, fixed in formalin (10% v/v formaldehyde) and enumerated aiming to collect further information on any compound-induced effects on parasite fecundity and IVLE production.

Setting [2] is: 72 h, Table 2, average of phenotype and motility EC50, 72 h, read-out: Activity on schistosomula (EC50, μM - 72 h) Average.
Setting [3] is: 72 h, Table 2, motility, 72 h, three replicate titrations (0.313–10 μM), read-out: Activity on schistosomula (EC50, μM - 72 h) M.
[4] abbreviates: 72 h, Table 2, phenotype, 72 h, three replicate titrations (0.313–10 μM), read-out: Activity on schistosomula (EC50, μM - 72 h) P.
[5] abbreviates: 72 h, read-out: EC50 on schistosomula (bounds and ranges given).
[6] abbreviates: Table 4, Series A, read-out: Anti-schistosomal activity EC50 Schistosomula (μM) Motility.
Where [7] appears, read: Table 4, Series A, read-out: Anti-schistosomal activity EC50 Schistosomula (μM) Phenotype.
The mark [8] stands for this setting: Table 4, Series A, read-out: Anti-schistosomal activity EC50 Adult (nM) Motility.
Setting [9] is: Table 2, 72 h, titrations 0.0095–5 μM, WormassayGP2, read-out: Activity on adult worms (EC50, μM - 72 h) Motility.
Where [10] appears, read: Table 5, Series C, read-out: Anti-schistosomal activity EC50 Schistosomula (μM) Motility.
The mark [11] stands for this setting: Table 5, Series C, read-out: Anti-schistosomal activity EC50 Schistosomula (μM) Phenotype.
Setting [12] is: Table 5, Series C, read-out: Anti-schistosomal activity EC50 Adult (nM) Motility.

Turning to `Nc1ccc2nc(Nc3ccc(Cl)c(Cl)c3)c(Nc3ccc(Cl)c(Cl)c3)nc2c1` [Compound 22a, N^2, N^3-bis(3,4-dichlorophenyl)quinoxaline-2,3,6-triamine], the “Toxicity on HepG2 in words” value with HepG2 cells is recorded as “low toxicity”. Further, the EC50 (commonly the concentration needed to bring the measured effect to its halfway point) in the series on S. mansoni schistosomula (setting [2]) was 3.38 µM; in the series on S. mansoni schistosomula (setting [3]), 3.25 µM; with S. mansoni schistosomula (setting [4]), 3.51 µM; in the series with S. mansoni schistosomula (setting [5]), > 2 µM.
`O=[N+]([O-])c1ccc2nc(Nc3cccc(Cl)c3)c(Nc3cccc(Cl)c3)nc2c1` [Compound 25, N^2, N^3-bis(3-chlorophenyl)-6-nitroquinoxaline-2,3-diamine]: the “Effect on S. japonicum adult male worms” value in series [1] (5, 24, 48 and 72 h) is on record as “decreased motility starting at 48 h”. Moreover, in series [1] (S. japonicum, 5 h, max = 4, one line per replicate), the “SEVERITY SCORES 5 h” value is recorded as 0. Also, the “SEVERITY SCORES 24 h” value in series [1] (S. japonicum, 24 h, max = 4, one line per replicate) stood at 0. For the same molecule, the “SEVERITY SCORES 48 h” value in series [1] (S. japonicum, 48 h, max = 4, one line per replicate) was 2. In addition, the “DESCRIPTORS 48 h” value in series [1] (S. japonicum, 48 h, one line per replicate) is reported as “S, on sides”. Besides, the “SEVERITY SCORES 72 h” value in series [1] (S. japonicum, 72 h, max = 4, one line per replicate) worked out at 2. Besides, the “DESCRIPTORS 72 h” value in series [1] (S. japonicum, 72 h, one line per replicate) was “S+, on sides”. The “Selectivity Index (SI) Adult worms” value in the series with HepG2 cells amounted to 47.99. The “Selectivity Index (SI) Somula” value in the series with HepG2 cells is 0.46. Also, the EC50 with S. mansoni schistosomula (setting [2]) came out at 1.26 µM; in the series with S. mansoni schistosomula (setting [3]), 1.3 µM; with S. mansoni schistosomula (setting [4]), 1.22 µM; in the series with S. mansoni schistosomula (setting [6]), 1.3 µM; with S. mansoni schistosomula (setting [7]), 1.22 µM; with S. mansoni adult worms (setting [8]) it was 12 nM. Besides, the 50% effective concentration (EC50) in the series on S. mansoni adult worms (setting [9]) amounted to 12 nM.
`CC(=O)Nc1ccc2nc(Nc3ccc(Cl)c(Cl)c3)c(Nc3ccc(Cl)c(Cl)c3)nc2c1` [Compound 22c, N-(2,3-bis((3,4-dichlorophenyl)amino)quinoxalin-6-yl)acetamide]: in the series on HepG2 cells, the “Selectivity Index (SI) Adult worms” value was 6.52. Moreover, the “Selectivity Index (SI) Somula” value with HepG2 cells was 1.57. In addition, the EC50 is 2.91 µM in the series with S. mansoni schistosomula (setting [2]); 2.79 µM with S. mansoni schistosomula (setting [3]); 3.04 µM in the series with S. mansoni schistosomula (setting [4]); > 2 µM with S. mansoni schistosomula (setting [5]); 2.79 µM in the series with S. mansoni schistosomula (setting [10]); 3.04 µM with S. mansoni schistosomula (setting [11]). Also, the EC50 in the series on S. mansoni adult worms (setting [12]) and in the series on S. mansoni adult worms (setting [9]) was 704 nM throughout.
For `O=[N+]([O-])c1ccc2nc(Nc3ccc(F)cc3)c(Nc3ccc(F)cc3)nc2c1` [Compound 28, N2, N3-bis(4-fluorophenyl)-6-nitroquinoxaline-2,3-diamine], the “Toxicity on HepG2 in words” value in the series with HepG2 cells was “low toxicity”. Moreover, the EC50 in the series with S. mansoni schistosomula (setting [2]) came to 1.77 µM; in the series with S. mansoni schistosomula (setting [3]), 1.4 µM; in the series on S. mansoni schistosomula (setting [4]) it was 2.14 µM; in the series with S. mansoni schistosomula (setting [6]), 1.4 µM; in the series with S. mansoni schistosomula (setting [7]), 2.14 µM; in the series on S. mansoni adult worms (setting [8]), 382 nM. Besides, the EC50 in the series with S. mansoni adult worms (setting [9]) was found to be 382 nM.
For the molecule `CCCCCC(=O)Nc1ccc2nc(Nc3ccc(Cl)c(Cl)c3)c(Nc3ccc(Cl)c(Cl)c3)nc2c1` [Compound 22d, N-(2,3-bis((3,4-dichlorophenyl)amino)quinoxalin-6-yl)hexanamide], in the series with HepG2 cells, the “Toxicity on HepG2 in words” value is given as “low toxicity”. Further, the “Selectivity Index (SI) Adult worms” value in the series with HepG2 cells is 7.65. In the series on HepG2 cells, the “Selectivity Index (SI) Somula” value is recorded as 1.72. The EC50 with S. mansoni schistosomula (setting [2]) came to 1.41 µM; in the series on S. mansoni schistosomula (setting [3]), 1.8 µM; in the series on S. mansoni schistosomula (setting [4]), 1.02 µM; in the series with S. mansoni schistosomula (setting [10]), 1.8 µM; in the series on S. mansoni schistosomula (setting [11]), 1.02 µM; in the series with S. mansoni adult worms (setting [12]), 318 nM. The EC50 in the series on S. mansoni adult worms (setting [9]) stood at 318 nM.
On to `O=C(Nc1ccc2nc(Nc3ccc(Cl)c(Cl)c3)c(Nc3ccc(Cl)c(Cl)c3)nc2c1)c1ccco1` [Compound 22f, N-(2,3-bis((3,4-dichlorophenyl)amino)quinoxalin-6-yl)furan-2-carboxamide], for which, in the series on HepG2 cells, the “Selectivity Index (SI) Somula” value is recorded as 2.91. Besides, the EC50 in the series with S. mansoni schistosomula (setting [2]) was determined as 1.95 µM; with S. mansoni schistosomula (setting [3]), 2 µM; in the series on S. mansoni schistosomula (setting [4]), 1.91 µM; in the series with S. mansoni schistosomula (setting [10]), 2 µM; in the series with S. mansoni schistosomula (setting [11]) it was 1.91 µM.
On to `O=[N+]([O-])c1ccc2nc(Nc3ccc(F)c(C(F)(F)F)c3)c(Nc3ccc(F)c(C(F)(F)F)c3)nc2c1` [Compound 32, N2, N3-bis(4-fluoro-3-(trifluoromethyl)phenyl)-6-nitroquinoxaline-2,3-diamine], for which the “Selectivity Index (SI) Adult worms” value in the series on HepG2 cells came out at 60.99. Moreover, the “Selectivity Index (SI) Somula” value with HepG2 cells was determined as 0.94. The EC50 came out at 0.72 µM in the series with S. mansoni schistosomula (setting [2]); 0.54 µM in the series with S. mansoni schistosomula (setting [3]); 0.89 µM in the series on S. mansoni schistosomula (setting [4]); 0.54 µM with S. mansoni schistosomula (setting [6]); 0.89 µM in the series on S. mansoni schistosomula (setting [7]); 11 nM in the series with S. mansoni adult worms (setting [8]). Further, the EC50 in the series with S. mansoni adult worms (setting [9]) amounted to 11 nM.
As to `O=[N+]([O-])c1ccc2nc(NCc3ccccc3)c(NCc3ccccc3)nc2c1` [Compound 36, N2, N3-dibenzyl-6-nitroquinoxaline-2,3-diamine], the “Selectivity Index (SI) Somula” value in the series with HepG2 cells came to 1.74. For the same molecule, the EC50 with S. mansoni schistosomula (setting [2]) is 2.91 µM; in the series on S. mansoni schistosomula (setting [3]) it was 2.64 µM; with S. mansoni schistosomula (setting [4]), 3.19 µM; with S. mansoni schistosomula (setting [5]), > 2 µM; in the series with S. mansoni schistosomula (Table 3, read-out: Anti-schistosomal activity EC50 (μM) Schistosomula Motility) it was 2.64 µM; in the series with S. mansoni schistosomula (Table 3, read-out: Anti-schistosomal activity EC50 (μM) Schistosomula Phenotype), 3.19 µM.
In the case of `O=[N+]([O-])c1ccc2nc(Nc3ccc(Br)cc3)c(Nc3ccc(Br)cc3)nc2c1` [Compound 29, N2, N3-bis(4-bromophenyl)-6-nitroquinoxaline-2,3-diamine], the “Selectivity Index (SI) Adult worms” value in the series with HepG2 cells stood at 32.52. Also, in the series with HepG2 cells, the “Selectivity Index (SI) Somula” value turned out to be 5.55. In addition, the EC50 amounted to 0.71 µM with S. mansoni schistosomula (setting [2]); 0.65 µM with S. mansoni schistosomula (setting [3]); 0.78 µM in the series with S. mansoni schistosomula (setting [4]); 0.83 µM with S. mansoni schistosomula (setting [6]); 1.06 µM in the series on S. mansoni schistosomula (setting [7]); 122 nM in the series on S. mansoni adult worms (setting [8]). In the series with S. mansoni adult worms (setting [9]), the EC50 is 122 nM.
